Among the data in ChEMBL document CHEMBL4819038, “Structure based design and synthesis of novel Toll-like Receptor 2 (TLR 2) lipid antagonists” (Bioorg Med Chem Lett, 2021) are IC50 and Stabilty values, retold here.

Each structure is given as a SMILES string.

The target in data set [1] is T1, Toll-like receptor 2 (Homo sapiens, UniProt O60603). Description: Antagonist activity at human TLR2 expressed in HEK-Blue cells assessed as inhibition of Pam3CSK4-induced TLR2/TLR1 activation by measuring decrease in NFkappaB activation pretreated for 2 hrs followed by incubation with agonist for 18 hrs by SEAP assay. The class given is cell-based, HEK-Blue hTLR2.
T1 sequence (O60603 whole entry): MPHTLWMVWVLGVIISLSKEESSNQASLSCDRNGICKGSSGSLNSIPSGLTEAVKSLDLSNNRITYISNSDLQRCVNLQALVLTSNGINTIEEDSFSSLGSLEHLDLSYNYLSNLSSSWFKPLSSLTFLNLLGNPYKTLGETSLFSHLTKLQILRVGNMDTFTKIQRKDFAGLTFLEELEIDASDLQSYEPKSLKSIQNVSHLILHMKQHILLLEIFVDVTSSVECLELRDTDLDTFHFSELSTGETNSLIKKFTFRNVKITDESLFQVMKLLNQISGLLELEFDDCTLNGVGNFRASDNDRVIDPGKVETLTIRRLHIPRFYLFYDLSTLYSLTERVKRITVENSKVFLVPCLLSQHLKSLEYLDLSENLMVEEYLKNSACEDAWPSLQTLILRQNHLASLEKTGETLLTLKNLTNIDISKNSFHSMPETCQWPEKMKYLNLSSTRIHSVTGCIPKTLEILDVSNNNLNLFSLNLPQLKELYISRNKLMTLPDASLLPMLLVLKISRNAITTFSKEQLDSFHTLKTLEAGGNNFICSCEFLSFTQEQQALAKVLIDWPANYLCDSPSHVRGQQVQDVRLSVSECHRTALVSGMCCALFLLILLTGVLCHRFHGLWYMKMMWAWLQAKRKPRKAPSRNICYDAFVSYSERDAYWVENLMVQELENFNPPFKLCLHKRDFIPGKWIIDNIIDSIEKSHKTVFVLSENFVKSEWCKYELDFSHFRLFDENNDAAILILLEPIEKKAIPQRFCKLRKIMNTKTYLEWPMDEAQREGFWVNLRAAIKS

The target of data set [2] is T1, Toll-like receptor 2. Briefly: Antagonist activity at human TLR2 expressed in HEK-Blue cells assessed as inhibition of Pam2CSK4-induced TLR2/TLR6 activation by measuring decrease in NFkappaB activation pretreated for 2 hrs followed by incubation with agonist for 18 hrs by SEAP assay. The class given is cell-based, HEK-Blue hTLR2.
Data set [3] can be described thus: Stability of the compound in simulated gastric fluid. It is filed as ADME. To be noted: simulated gi fluid.
The nature of data set [4]: Stability of the compound in PBS buffer/EtOH. It is filed as physicochemical.

The IC50 is the concentration that gives 50% inhibition. Take `CCCCCCCCCCCCCCOCC(CNC(=O)[C@H](CCCCN)NCc1ccc(-c2ccccc2)cc1)OCCCCCCCCCCCCCC` (some centres not stated): the results for the IC50 on Toll-like receptor 2 [1] and at Toll-like receptor 2 [2] were 2.8 µM and 27.9 µM, respectively.
For the compound `CCCCCCCCCCCCCCOCC(CNC(=O)c1cccc(C2CCNCC2)c1)OCCCCCCCCCCCCCC.Cl` (configuration not stated), the Stabilty in data set [3] and in data set [4] was over 1 h each time.
As for `CCCCC/C=C\C/C=C\CCCCCCCCOCC(CNC(=O)c1cccc(C2CCNCC2)c1)OCCCCCCCC/C=C\C/C=C\CCCCC` (configuration not stated), the IC50 on Toll-like receptor 2 [1] worked out at 3.3 µM; on Toll-like receptor 2 [2], 16.1 µM.
For `CCCCCCCCCCCCCCNC(=O)[C@H](CCCCN)NCc1ccccc1`, in that order: 14.5 µM and 11.3 µM.
Turning to `CCCCCCCCCCCCCCOCC(CNC(=O)[C@@H](CCCCN)NCc1ccccc1)OCCCCCCCCCCCCCC.Cl` (some centres not stated), the Stabilty in data set [3] and in data set [4] was over 1 h throughout.
As for `CCCCC/C=C\CCCCCCCOCC(CNC(=O)c1cccc(C2CCNCC2)c1)OCCCCCCC/C=C\CCCCC` (configuration not stated), the IC50 at Toll-like receptor 2 [1] was 18.5 µM; on Toll-like receptor 2 [2] it was 16.9 µM.
The like results for `CCCCCCCCCCCCCCOCC(CNC(=O)C1(NC(=O)OCc2ccccc2)CCNCC1)OCCCCCCCCCCCCCC` (configuration not stated) were, in that order, 2.6 µM and over 30 µM.
The like results for `CCCCCCCCCCCCCCOCC(CNC(=O)[C@H]1CCCN1)OCCCCCCCCCCCCCC` (some centres not stated) were, in that order, 14.3 µM and over 30 µM.
For the compound `CCCCCCCOC(CNC(=O)[C@H](CCCCN)NCc1ccccc1)COC` (some centres not stated), the IC50 at Toll-like receptor 2 [1] and on Toll-like receptor 2 [2] was over 30 µM throughout.
Regarding `CCCCCCCCCCCCCCOCC(CNC(=O)CCCCCN)OCCCCCCCCCCCCCC` (configuration not stated), the results for the IC50 at Toll-like receptor 2 [1] and at Toll-like receptor 2 [2] were over 20 µM and over 30 µM, respectively.
As for `CCCCCCCCCCCCCCOCC(CNC(=O)C(CC1CCNCC1)NC(=O)OCC1c2ccccc2-c2ccccc21)OCCCCCCCCCCCCCC` (configuration not stated), the IC50 on Toll-like receptor 2 [1] came out at 1.8 µM; at Toll-like receptor 2 [2], 16.7 µM.
For the compound `CCCCCCCCCCCCCCOCC(CNC(=O)[C@@H](CCCCN)NC(=O)OCc1ccccc1)OCCCCCCCCCCCCCC` (some centres not stated), the values for the concentration for half-maximal inhibition (IC50) at Toll-like receptor 2 [1] and at Toll-like receptor 2 [2] were 2.3 µM and over 30 µM, respectively.
On to `CCCCCCCCCCCCCCOCC(CNC(=O)[C@H](CCCCN)NCc1ccc(F)cc1)OCCCCCCCCCCCCCC` (some centres not stated), for which the IC50 at Toll-like receptor 2 [1] is 2.9 µM; on Toll-like receptor 2 [2] it was over 30 µM.
Consider `CCCCCCCCCCCCCCOCC(CNC(=O)CC[C@H](NC(=O)OCC1c2ccccc2-c2ccccc21)C(=O)O)OCCCCCCCCCCCCCC` (some centres not stated), for which the IC50 at Toll-like receptor 2 [1] stood at 8.7 µM; at Toll-like receptor 2 [2] it was 13.3 µM.
For `CCCCCCCOCCNC(=O)[C@H](CCCCN)NCc1ccccc1`, in that order: 22.6 µM and 13.7 µM.
For `CCCCCCCCCCCCCCOCC(CNC(=O)[C@H](CCCCN)NC(=O)OCC1c2ccccc2-c2ccccc21)OCCCCCCCCCCCCCC` (some centres not stated), the concentration for half-maximal inhibition (IC50) on Toll-like receptor 2 [1] is 1.6 µM; on Toll-like receptor 2 [2] it was over 30 µM.
